Source: patent US20050191315A1 (priority 2002, published 2005)

What was measured:
Type in all cases: cell-based, human
[1] = test system: SEB transcytosis across T-84 cell monolayers
[2] = test system: SEA transcytosis across T-84 cell monolayers
[3] = test system: SEE transcytosis across T-84 cell monolayers
[4] = test system: TSST-1 transcytosis across T-84 cell monolayers

Sequence: KKKVTAQELD [SEB 152-161]
- movement of SEB across the monolayers reduced by [1]: 85%
- transcytosis of SEA reduced [2]: 73%
- transcytosis of SEE reduced [3]: 68%
- transcytosis of TSST-1 reduced [4]: 59%
